assay: Inhibition of recombinant human IL-17A/IL-17AR protein-protein interaction using TMB substrate compound added on IL17A precoated plate and followed by IL-17AR addition by ELISA

Row | SMILES | IC50 [nM]
1 | CC[C@H](C)[C@@H]1NC(=O)[C@H](C)[C@@H](O[C@H]2C[C@@](C)(OC)[C@@H](O)[C@H](C)O2)[C@H](C)[C@@H](O[C@@H]2O[C@H](C)C[C@H](N(C)C)[C@H]2O)[C@](C)(O)C[C@@H](C)CN(C)C(=O)C[C@@H](Cc2ccc(NC(=O)[C@H](Cc3ccccc3Cl)NC(=O)Cc3ccccc3)cc2)NC1=O | 2600
2 | COc1ccc(C(=O)N[C@@H](Cc2ccccc2Cl)C(=O)Nc2ccc(C[C@@H]3CC(=O)N(C)C[C@H](C)C[C@@](C)(O)[C@H](O[C@@H]4O[C@H](C)C[C@H](N(C)C)[C@H]4O)[C@@H](C)[C@H](O[C@H]4C[C@@](C)(OC)[C@@H](O)[C@H](C)O4)[C@@H](C)C(=O)N[C@@H](C(C)C)C(=O)N3)cc2)cc1 | 397
3 | CO[C@]1(C)C[C@H](O[C@H]2[C@H](C)[C@@H](O[C@@H]3O[C@H](C)C[C@H](N(C)C)[C@H]3O)[C@](C)(O)C[C@@H](C)CN(C)C(=O)[C@@H](Cc3ccc(NC(=O)[C@H](Cc4ccccc4Cl)NC(=O)Cc4ccccc4)cc3)NC(=O)C[C@@H](C(C)C)NC(=O)[C@@H]2C)O[C@@H](C)[C@@H]1O | > 30000
4 | CO[C@]1(C)C[C@H](O[C@H]2[C@H](C)[C@@H](O[C@@H]3O[C@H](C)C[C@H](N(C)C)[C@H]3O)[C@](C)(O)C[C@@H](C)CN(C)C(=O)C[C@@H](Cc3ccc(NC(=O)[C@H](Cc4ccccc4Cl)NC(=O)OCc4ccccc4)cc3)NC(=O)[C@H](C(C)C)NC(=O)[C@@H]2C)O[C@@H](C)[C@@H]1O | 59
5 | CO[C@]1(C)C[C@H](O[C@H]2[C@H](C)[C@@H](O[C@@H]3O[C@H](C)C[C@H](N(C)C)[C@H]3O)[C@](C)(O)C[C@@H](C)CN(C)C(=O)C[C@@H](Cc3ccc(NC(=O)[C@H](Cc4ccccc4Cl)NC(=O)Cc4ccc(C(=O)O)cc4)cc3)NC(=O)[C@H](C(C)C)NC(=O)[C@@H]2C)O[C@@H](C)[C@@H]1O | > 10000
6 | CO[C@]1(C)C[C@H](O[C@H]2[C@H](C)[C@@H](O[C@@H]3O[C@H](C)C[C@H](N(C)C)[C@H]3O)[C@](C)(O)C[C@@H](C)CN(C)C(=O)C[C@@H](Cc3ccc(NC(=O)[C@H](Cc4ccccc4Cl)NC(=O)Cc4ccccc4)cc3)NC(=O)CCNC(=O)[C@@H]2C)O[C@@H](C)[C@@H]1O | > 30000
7 | CO[C@]1(C)C[C@H](O[C@H]2[C@H](C)[C@@H](O[C@@H]3O[C@H](C)C[C@H](N(C)C)[C@H]3O)[C@](C)(O)C[C@@H](C)CN(C)C(=O)[C@H](C(C)C)NC(=O)C[C@H](Cc3ccc(NC(=O)[C@H](Cc4ccccc4Cl)NC(=O)Cc4ccccc4)cc3)NC(=O)[C@@H]2C)O[C@@H](C)[C@@H]1O | > 30000
8 | CO[C@]1(C)C[C@H](O[C@H]2[C@H](C)[C@@H](O[C@@H]3O[C@H](C)C[C@H](N(C)C)[C@H]3O)[C@](C)(O)C[C@@H](C)CN(C)C(=O)C[C@@H](Cc3ccc(NC(=O)[C@H](Cc4ccccc4Cl)NC(=O)NCc4ccc(F)cc4)cc3)NC(=O)[C@H](C(C)C)NC(=O)[C@@H]2C)O[C@@H](C)[C@@H]1O | 179
9 | CO[C@]1(C)C[C@H](O[C@H]2[C@H](C)[C@@H](O[C@@H]3O[C@H](C)C[C@H](N(C)C)[C@H]3O)[C@](C)(O)C[C@@H](C)CN(C)C(=O)C[C@@H](Cc3ccc(NC(=O)[C@H](Cc4ccccc4Cl)NC(=O)Cc4cccc(C)c4)cc3)NC(=O)[C@H](C(C)C)NC(=O)[C@@H]2C)O[C@@H](C)[C@@H]1O | 77
10 | CO[C@]1(C)C[C@H](O[C@H]2[C@H](C)[C@@H](O[C@@H]3O[C@H](C)C[C@H](N(C)C)[C@H]3O)[C@](C)(O)C[C@@H](C)CN(C)C(=O)C[C@@H](Cc3ccc(NC(=O)[C@H](Cc4ccccc4Cl)NC(=O)NCc4ccccc4F)cc3)NC(=O)[C@H](C(C)C)NC(=O)[C@@H]2C)O[C@@H](C)[C@@H]1O | 346
11 | CO[C@]1(C)C[C@H](O[C@H]2[C@H](C)[C@@H](O[C@@H]3O[C@H](C)C[C@H](N(C)C)[C@H]3O)[C@](C)(O)C[C@@H](C)CN(C)C(=O)C[C@@H](Cc3ccc(NC(=O)[C@H](Cc4ccccc4Cl)NC(=O)Cc4ccc(C)cc4)cc3)NC(=O)[C@H](C(C)C)NC(=O)[C@@H]2C)O[C@@H](C)[C@@H]1O | 243
12 | CO[C@]1(C)C[C@H](O[C@H]2[C@H](C)[C@@H](O[C@@H]3O[C@H](C)C[C@H](N(C)C)[C@H]3O)[C@](C)(O)C[C@@H](C)CN(C)C(=O)C[C@@H](Cc3ccc(NC(=O)[C@H](Cc4ccccc4Cl)NC(=O)Cc4cccc(S(C)(=O)=O)c4)cc3)NC(=O)[C@H](C(C)C)NC(=O)[C@@H]2C)O[C@@H](C)[C@@H]1O | 1600
13 | CO[C@]1(C)C[C@H](O[C@H]2[C@H](C)[C@@H](O[C@@H]3O[C@H](C)C[C@H](N(C)C)[C@H]3O)[C@](C)(O)C[C@@H](C)CN(C)C(=O)C[C@@H](Cc3ccc(NC(=O)[C@H](Cc4ccccc4Cl)NC(=O)Cc4ccccc4F)cc3)NC(=O)[C@H](C(C)C)NC(=O)[C@@H]2C)O[C@@H](C)[C@@H]1O | 198
14 | CO[C@]1(C)C[C@H](O[C@H]2[C@H](C)[C@@H](O[C@@H]3O[C@H](C)C[C@H](N(C)C)[C@H]3O)[C@](C)(O)C[C@@H](C)CN(C)C(=O)C[C@@H](Cc3ccc(NC(=O)[C@H](Cc4ccccc4Cl)NC(=O)Cc4ccccc4)cc3)NC(=O)[C@@H]3CCC[C@H]3NC(=O)[C@@H]2C)O[C@@H](C)[C@@H]1O | 5900
15 | COc1ccc(C2(C(=O)N[C@@H](Cc3ccccc3Cl)C(=O)Nc3ccc(C[C@@H]4CC(=O)N(C)C[C@H](C)C[C@@](C)(O)[C@H](O[C@@H]5O[C@H](C)C[C@H](N(C)C)[C@H]5O)[C@@H](C)[C@H](O[C@H]5C[C@@](C)(OC)[C@@H](O)[C@H](C)O5)[C@@H](C)C(=O)N[C@@H](C(C)C)C(=O)N4)cc3)CC2)cc1 | 5390
16 | CO[C@]1(C)C[C@H](O[C@H]2[C@H](C)[C@@H](O[C@@H]3O[C@H](C)C[C@H](N(C)C)[C@H]3O)[C@](C)(O)C[C@@H](C)CN(C)C(=O)C[C@@H](Cc3ccc(NC(=O)[C@H](Cc4ccccc4Cl)NC(=O)Cc4cccc(F)c4)cc3)NC(=O)[C@H](C(C)C)NC(=O)[C@@H]2C)O[C@@H](C)[C@@H]1O | 80
17 | CO[C@]1(C)C[C@H](O[C@H]2[C@H](C)[C@@H](O[C@@H]3O[C@H](C)C[C@H](N(C)C)[C@H]3O)[C@](C)(O)C[C@@H](C)CN(C)C(=O)C[C@@H](Cc3ccc(NC(=O)[C@H](Cc4ccccc4Cl)NC(=O)C(O)c4ccccc4)cc3)NC(=O)[C@H](C(C)C)NC(=O)[C@@H]2C)O[C@@H](C)[C@@H]1O (some centres not stated) | 1190
18 | CO[C@]1(C)C[C@H](O[C@H]2[C@H](C)[C@@H](O[C@@H]3O[C@H](C)C[C@H](N(C)C)[C@H]3O)[C@](C)(O)C[C@@H](C)CN(C)C(=O)[C@@H](Cc3ccc(NC(=O)[C@H](Cc4ccccc4Cl)NC(=O)Cc4ccccc4)cc3)NC(=O)C[C@H](C(C)C)NC(=O)[C@@H]2C)O[C@@H](C)[C@@H]1O | > 30000
19 | CO[C@]1(C)C[C@H](O[C@H]2[C@H](C)[C@@H](O[C@@H]3O[C@H](C)C[C@H](N(C)C)[C@H]3O)[C@](C)(O)C[C@@H](C)CN(C)C(=O)[C@@H](C(C)C)NC(=O)C[C@@H](Cc3ccc(NC(=O)[C@H](Cc4ccccc4Cl)NC(=O)Cc4ccccc4)cc3)NC(=O)[C@@H]2C)O[C@@H](C)[C@@H]1O | > 30000
20 | CO[C@]1(C)C[C@H](O[C@H]2[C@H](C)[C@@H](O[C@@H]3O[C@H](C)C[C@H](N(C)C)[C@H]3O)[C@](C)(O)C[C@@H](C)CN(C)C(=O)C[C@@H](Cc3ccc(NC(=O)[C@H](Cc4ccccc4Cl)NC(=O)Cc4ccccc4)cc3)NC(=O)CC3(CCCC3)CNC(=O)[C@@H]2C)O[C@@H](C)[C@@H]1O | 6760
21 | CO[C@]1(C)C[C@H](O[C@H]2[C@H](C)[C@@H](O[C@@H]3O[C@H](C)C[C@H](N(C)C)[C@H]3O)[C@](C)(O)C[C@@H](C)CN(C)C(=O)C[C@H](Cc3ccc(NC(=O)[C@H](Cc4ccccc4Cl)NC(=O)Cc4ccccc4)cc3)NC(=O)[C@@H](C(C)C)NC(=O)[C@@H]2C)O[C@@H](C)[C@@H]1O | > 30000
22 | CO[C@]1(C)C[C@H](O[C@H]2[C@H](C)[C@@H](O[C@@H]3O[C@H](C)C[C@H](N(C)C)[C@H]3O)[C@](C)(O)C[C@@H](C)CN(C)C(=O)C[C@@H](Cc3ccc(NC(=O)[C@H](Cc4ccccc4)NC(=O)Cc4ccccc4)cc3)NC(=O)[C@H](C(C)C)NC(=O)[C@@H]2C)O[C@@H](C)[C@@H]1O | 2560
23 | CO[C@]1(C)C[C@H](O[C@H]2[C@H](C)[C@@H](O[C@@H]3O[C@H](C)C[C@H](N(C)C)[C@H]3O)[C@](C)(O)C[C@@H](C)CN(C)C(=O)C[C@@H](Cc3ccc(NC(=O)[C@H](Cc4ccccc4Cl)NC(=O)Cc4ccccc4)cc3)NC(=O)[C@H](C(C)(C)C)NC(=O)[C@@H]2C)O[C@@H](C)[C@@H]1O | 1600
24 | CO[C@]1(C)C[C@H](O[C@H]2[C@H](C)[C@@H](O[C@@H]3O[C@H](C)C[C@H](N(C)C)[C@H]3O)[C@](C)(O)C[C@@H](C)CN(C)C(=O)C[C@@H](Cc3ccc(NC(=O)[C@H](Cc4ccccc4Cl)NC(=O)Cc4ccccc4)cc3)NC(=O)[C@@H](C(C)C)NC(=O)[C@@H]2C)O[C@@H](C)[C@@H]1O | > 30000
25 | CO[C@]1(C)C[C@H](O[C@H]2[C@H](C)[C@@H](O[C@@H]3O[C@H](C)C[C@H](N(C)C)[C@H]3O)[C@](C)(O)C[C@@H](C)CN(C)C(=O)C[C@H](Cc3ccc(NC(=O)[C@H](Cc4ccccc4Cl)NC(=O)Cc4ccccc4)cc3)NC(=O)[C@H](C(C)C)NC(=O)[C@@H]2C)O[C@@H](C)[C@@H]1O | > 30000
26 | CO[C@]1(C)C[C@H](O[C@H]2[C@H](C)[C@@H](O[C@@H]3O[C@H](C)C[C@H](N(C)C)[C@H]3O)[C@](C)(O)C[C@@H](C)CN(C)C(=O)C[C@@H](Cc3ccc(NC(=O)[C@H](Cc4ccccc4Cl)NC(=O)Cc4ccccc4C)cc3)NC(=O)[C@H](C(C)C)NC(=O)[C@@H]2C)O[C@@H](C)[C@@H]1O | 116
27 | CO[C@]1(C)C[C@H](O[C@H]2[C@H](C)[C@@H](O[C@@H]3O[C@H](C)C[C@H](N(C)C)[C@H]3O)[C@](C)(O)C[C@@H](C)CN(C)C(=O)C[C@@H](Cc3ccc(NC(=O)[C@H](Cc4ccccc4Cl)NC(=O)Cc4ccc(S(C)(=O)=O)cc4)cc3)NC(=O)[C@H](C(C)C)NC(=O)[C@@H]2C)O[C@@H](C)[C@@H]1O | 946

Source: ChEMBL document CHEMBL5033997, “Macrolide Inspired Macrocycles as Modulators of the IL-17A/IL-17RA Interaction” (J Med Chem, 2021)
